From publication PMC5699221 (Biochemistry, 2017) come the findings set out here.

In one series the target is PaODH (Pseudomonas aeruginosa, UniProt Q9HUX5). Put plainly: NADPH fluorescence, titrated with enzyme. Format: binding.
The next series concerns the target PaNAS (Pseudomonas aeruginosa, UniProt Q9HUX4). Put plainly: biochemical.
Series [1] has as its system N[C@H](Cc1c[nH]cn1)C(=O)O. Put plainly: purified protein. The conditions noted are these: co-substrate SAM, coupled with SaODH, NADPH, pyruvate, 50 mM Tris pH 8.

Chain of PaODH (Q9HUX5 whole entry): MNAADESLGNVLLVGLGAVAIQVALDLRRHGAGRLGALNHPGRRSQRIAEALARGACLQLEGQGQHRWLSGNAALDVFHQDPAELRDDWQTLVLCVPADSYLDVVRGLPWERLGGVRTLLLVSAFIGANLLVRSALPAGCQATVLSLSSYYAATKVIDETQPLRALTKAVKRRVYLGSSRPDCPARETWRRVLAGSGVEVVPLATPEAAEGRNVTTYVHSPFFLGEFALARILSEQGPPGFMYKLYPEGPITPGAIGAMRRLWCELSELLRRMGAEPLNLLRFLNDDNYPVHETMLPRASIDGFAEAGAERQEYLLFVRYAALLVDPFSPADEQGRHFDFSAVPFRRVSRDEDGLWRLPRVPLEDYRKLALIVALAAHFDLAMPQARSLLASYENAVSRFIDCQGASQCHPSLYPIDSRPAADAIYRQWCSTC
Chain of PaNAS (Q9HUX4 whole entry): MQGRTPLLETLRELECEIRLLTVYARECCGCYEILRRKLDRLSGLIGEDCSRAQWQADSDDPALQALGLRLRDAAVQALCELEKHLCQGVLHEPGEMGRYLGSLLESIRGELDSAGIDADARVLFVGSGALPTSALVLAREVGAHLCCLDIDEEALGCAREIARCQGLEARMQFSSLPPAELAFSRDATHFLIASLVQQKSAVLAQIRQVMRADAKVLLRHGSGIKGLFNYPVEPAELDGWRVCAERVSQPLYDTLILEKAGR

Take `NC(=O)C1=CN([C@@H]2O[C@H](COP(=O)(O)OP(=O)(O)OC[C@H]3O[C@@H](n4cnc5c(N)ncnc54)[C@H](OP(=O)(O)O)[C@@H]3O)[C@@H](O)[C@H]2O)C=CC1` [NADPH]: the Kd at PaODH came out at 11 ± 1 µM. `C[S+](CC[C@H](N)C(=O)O)C[C@H]1O[C@@H](n2cnc3c(N)ncnc32)[C@H](O)[C@@H]1O` (stereo partly shown) [SAM]: binding on PaNAS was characterised by a dissociation constant (Kd) of 1.2 ± 0.3 µM. For the compound “SaNAS (Staphylococcus aureus subsp. aureus Mu50)”, in series [1], the Km is 13.0 ± 0.7 µM and the kcat was found to be 0.0298 ± 0.00033 s⁻¹.
